# Data taken from patent publication US20200317642A1, “AMINE-SUBSTITUTED HETEROCYCLIC COMPOUNDS AS EHMT2 INHIBITORS AND DERIVATIVES THEREOF” (Epizyme, Inc., priority 2017, published 2020).
# Like-named read-outs stand apart in the source and are kept apart here.
# Biological target: T1, EHMT1 (Homo sapiens, UniProt Q9H9B1)
# T1 sequence (Q9H9B1 1-1298): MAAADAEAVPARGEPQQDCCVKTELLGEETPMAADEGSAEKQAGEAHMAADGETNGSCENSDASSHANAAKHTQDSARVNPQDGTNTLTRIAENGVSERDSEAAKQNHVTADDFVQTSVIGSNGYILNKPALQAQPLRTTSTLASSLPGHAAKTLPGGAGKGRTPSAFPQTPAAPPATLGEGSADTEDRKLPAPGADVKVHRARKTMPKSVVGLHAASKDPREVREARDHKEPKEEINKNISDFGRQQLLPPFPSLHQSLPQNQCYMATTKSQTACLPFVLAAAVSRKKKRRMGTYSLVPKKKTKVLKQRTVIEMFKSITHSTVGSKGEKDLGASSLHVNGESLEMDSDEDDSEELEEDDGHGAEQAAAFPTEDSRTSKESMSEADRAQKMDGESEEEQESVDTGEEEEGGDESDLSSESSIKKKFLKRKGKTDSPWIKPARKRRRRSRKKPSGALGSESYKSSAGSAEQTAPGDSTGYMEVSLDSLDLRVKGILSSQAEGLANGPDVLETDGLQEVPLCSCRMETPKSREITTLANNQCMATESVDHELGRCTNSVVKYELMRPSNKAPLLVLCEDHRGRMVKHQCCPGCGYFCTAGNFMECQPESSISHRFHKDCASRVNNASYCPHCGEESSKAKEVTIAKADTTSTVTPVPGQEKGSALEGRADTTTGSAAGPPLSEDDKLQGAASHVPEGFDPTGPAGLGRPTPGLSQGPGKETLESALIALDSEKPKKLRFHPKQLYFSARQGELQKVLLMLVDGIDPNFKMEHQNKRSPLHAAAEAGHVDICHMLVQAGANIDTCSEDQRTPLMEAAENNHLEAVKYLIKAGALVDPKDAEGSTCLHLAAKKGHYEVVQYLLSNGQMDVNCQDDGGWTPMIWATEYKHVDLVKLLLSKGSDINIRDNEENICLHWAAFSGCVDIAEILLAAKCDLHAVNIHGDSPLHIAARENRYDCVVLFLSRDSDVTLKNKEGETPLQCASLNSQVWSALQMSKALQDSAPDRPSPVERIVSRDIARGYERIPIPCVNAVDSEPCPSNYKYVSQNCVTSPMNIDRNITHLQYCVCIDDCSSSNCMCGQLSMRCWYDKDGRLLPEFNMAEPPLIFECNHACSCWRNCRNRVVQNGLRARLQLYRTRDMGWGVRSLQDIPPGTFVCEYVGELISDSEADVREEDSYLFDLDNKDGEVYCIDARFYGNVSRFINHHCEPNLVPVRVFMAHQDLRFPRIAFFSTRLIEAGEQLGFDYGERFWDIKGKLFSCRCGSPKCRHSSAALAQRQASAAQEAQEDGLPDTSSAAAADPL
# Experiment: EHMT1 PEP enzyme assay
# Format: biochemical
# [1] = Table 3, read-out: EHMT1 PEP (IC50 μM)
# [2] = Table 3A, read-out: EHMT1 (IC50 μM)
Structure (SMILES),IC50 [1],IC50 [2]
CNc1cc(C)nc(Nc2ccc(Cl)c(C(=O)NC3CCOCC3)c2)n1 [Compound 8],> 10 µM,
CNc1cc(C)nc(Nc2ccc(OC)c(-n3cc(C4CCCN4)nn3)c2F)n1 (stereo not drawn) [Compound A4],,< 0.01 µM
CNc1cc(C)nc(Nc2ccc(OC)c(-n3cc(CNC(C)C)cn3)c2F)n1 [Compound A5],,0.1 to 1 µM
CNc1cc(C)nc(Nc2ccc(Cl)c(C(=O)NCCN3CCCC3)c2)n1 [Compound 7],< 0.1 µM,
"CNc1cc(C)nc(Nc2ccc(OC)c(-n3ncc4c3CCNC4)c2F)n1 [Compound A9, N2-(2-fluoro-4-methoxy-3-(4,5,6,7-tetrahydro-1H-pyrazolo[4,3-c]142yridine-1-yl)phenyl)-N4,6-dimethylpyrimidine-2,4-diamine]",,0.1 to 1 µM
"CNc1cc(C)nc(Nc2ccc(Br)c(CNCCN3CCCC3)c2)n1 [Compound 1, 2-N-[4-bromo-3-([[2-(pyrrolidin-1-yl)ethyl]amino]methyl)phenyl]-4-N,6-dimethylpyrimidine-2,4-diamine]",< 0.1 µM,
